In patent US20090054368A1, “Substituted gemini surfactant compounds” (University of Saskatchewan, priority 2007, published 2009):
“Also recorded” adds a separate entry of the source.

What was measured:
cultured cells = test: Viability of cells following transfection; assay type: cell-based; conditions: for cell viability / toxicity (in words): after transfection with plasmid DNA-gemini surfactant-DOPE
Protocol: Ideal transfection reagents are minimally toxic and/or disruptive to cells. Accordingly, the N-substituted surfactants were tested for toxicity in cultured cells. The viability of cells following transfection with either plasmid DNA-gemini surfactant-DOPE or Lipofectamine Plus are shown in FIG. 3. The aza-substituted surfactants 12-5N-12, 12-8N-12, and 12-7N-12 had similar toxicity compared to the Lipofectamine Plus reagent, with cell viability around 80% of the controls (i.e., no treatment or plasmid DNA alone; p>0.05).

[1] = Small angle X-ray scattering (SAXS) of plasmid DNA-gemini surfactant-DOPE complexes; assay type: physicochemical; conditions: plasmid DNA-gemini surfactant-DOPE complexes
Protocol: SAXS measurements were carried out at beamline X21 at the National Synchrotron Light Source at Brookhaven National Laboratory. Beamline X21 is based on a wiggler source, with a helium gas-cooled Si(111) monochromator selecting the photon energy. The X-ray beam is focused by a toroidal mirror into the experimental station. Three pairs of precision slits, positioned at 4 m, 1 m, and 5 cm upstream of the sample, define the beam. The scattering pattern is recorded using a 13 cm Mar CCD detector (Mar USA, Evanston, Ill.) located 1.26 m (calibrated with the scattering pattern of silver behenate) downstream of the sample. The measurements were performed with 12 KeV x-rays and the data covered a q-range from 0.008 Å^−1 to 0.375 Å^−1. All beam paths are under vacuum, except at the sample position, where the sample is in air, and kapton windows terminate the vacuum beam paths. Samples were loaded into 1.5 mm capillaries (Charles Supper #15-BG, Natick Mass.) and data recorded at room temperature. All spectra were processed to remove background contributions by subtracting the scattering profile obtained for a water-filled capillary. Peak fitting was carried out using the open-sources software package “fityk” (available at http://www.unipress.waw.pl/fityk/; last accessed on Jul. 5, 2007) using multiple Gaussian functions.
Solutions for SAXS analysis were prepared by addition of appropriate amounts of stock surfactant, DNA, and DOPE solutions, followed by sonication (to ensure complete mixing) where appropriate. The pGTmCMV.IFN-GFP plasmid DNA was used in the SAXS studies. The final concentrations of DNA and DOPE were 0.075 mM (50 μg/mL) and 1.00 mM (0.75 mg/mL), respectively. The concentration of gemini surfactant was adjusted as needed to obtain the desired 1:10 DNA:surfactant charge ratio. Preliminary x-ray scattering studies indicated these concentrations to be too dilute to give good scattering signals; as a result, the samples were concentrated 5× by evaporation.

[2] = test system: COS-7 African Green monkey kidney fibroblast cells; test: Transfection assay (luciferase production after transfection with plasmid DNA-gemini surfactant complexes); assay type: cell-based; conditions: PG complexes, complexed with DNA in the absence of helper lipid (DOPE)
[3] = previous work [11]; cited from earlier work
[4] = test system: COS-7 African Green monkey kidney fibroblast cells; test: Transfection assay (luciferase production after transfection with plasmid DNA-gemini surfactant complexes); assay type: cell-based
Protocol: COS-7 African Green monkey kidney fibroblast cells (ATCC CRL1651) were prepared for transfection in antibiotic and 10% fetal bovine serum supplemented minimal Eagle's medium (MEM). The day before transfection, 5×10^4 cells/well were seeded in 24-well plates (Greiner Labortechnik GmbH, Germany). The supplemented MEM was changed to MEM one hour prior to transfection.
The pMASIA.Luc plasmid DNA was used at a concentration of 0.2 μg/well for transfection. The transfection mixtures were prepared as follows: 0.2 μg of plasmid DNA was mixed with aliquots of gemini surfactant solution to obtain a plasmid DNA:gemini surfactant charge ratio of 1:10 and incubated at room temperature for 15 minutes. To this mixture, 25 μL of DOPE liposomes were added. The transfection mixtures were incubated for 30 minutes at room temperature prior to transfection and added to the cells, dropwise. The plates were incubated for 5 hours at 37° C. in a CO2 incubator. Dc-Chol (30-[N—(N′,N′-Dimethylaminoethane)-carbamoyl]cholesterol) was used for comparison and, as a positive control, cells were also transfected with Lipofectamine Plus™ Reagent (Invitrogen Life Technologies, Carlsbad, Calif.), according to the manufacturer's protocol, with 0.2 μg of plasmid DNA per well.
Luciferase production was quantified using the Promega Steady-Glo™ luciferase assay system. Luminescence was monitored using a Turner Biosystems (Sunnyvale, Calif., USA) Reporter microplate luminometer. Statistical analysis was performed using ANOVA and Tukey's multiple comparison test. […] Equal variances were tested using Bartlett's test, and normality by the D'Agostino & Pearson omnibus normality test.

[5] = Average membrane charge density calculation for plasmid DNA-gemini surfactant-DOPE nanoparticles; assay type: physicochemical; conditions: calculated from head group areas
[6] = Size (hydrodynamic radius) and zeta potential as a function of pH; assay type: physicochemical; conditions: PGL complexes
Protocol: Determinations of size (hydrodynamic radius, RH) and zeta potential (ζ) as a function of pH were carried out using a Malvern Instruments (Worcestershire, UK) ZetaSizer NanoZs with MPT-2 auto-titrator attachment. 10 mL of the desired sample was placed in the titration cell of the auto-titrator and samples were titrated (in 0.2-0.5 pH unit increments) with 0.1 M NaOH and 0.1 M HCl over the desired pH range. Size and zeta potential measurement were made in triplicate at each pH point, and the reported values represent the average±standard error. pH titrations of aqueous gemini surfactant solutions were made at a surfactant concentration of 2.00 mM, above the critical micelle concentration in all cases.
(§1) Solutions for size, zeta potential, and circular dichrosicm (CD) measurements were prepared, in larger volumes, as described above for the transfection experiments using a pGTmCMV.IFN-GFP plasmid DNA, previously constructed in our lab. Solutions containing only surfactant and plasmid DNA were prepared by addition of an aliquot of stock plasmid DNA to the gemini surfactant solution to a charge ratio of 1:10 (DNA:surfactant).

plasmid DNA = test: Circular dichroism of plasmid DNA-gemini surfactant complexes; assay type: physicochemical; conditions: with or without DOPE
Protocol: CD spectra were obtained by using an Applied Photo Physics π*180 instrument (Leatherhead, UK) with a 4 nm slit, at room temperature.
as §1

[7] = from reference [24]; cited from earlier work

SMILES: CCCCCCCCCCCC[N+](C)(C)CCC[N+](C)(C)CCCCCCCCCCCC.[Br-].[Br-] [12-3-12, reference compound]
- cell viability / toxicity (in words) (cultured cells): not statistically different from the control
- phase / morphology of lipid bilayers from scattering pattern (in words) [1]: predominantly hexagonal morphology
- transfection efficiency (in words) [2]: low transfection efficiency
- transfection efficiency within the 12-s-12 series, s=3-8 (in words) [3]: best transfection efficiency; also recorded: most efficient transfection agent

SMILES: CCCCCCCCCCCC[N+](C)(C)CCCNCCC[N+](C)(C)CCCCCCCCCCCC.[Br-].[Br-] [12-7NH-12, 1,9-bis(dodecyl)-1,1,9,9-tetramethyl-5-imino-1,9-nonanediammonium dibromide]
- increase in transfection compared to the corresponding aza-substituted compound [4]: 3 fold
- transfection efficiency (in words) ([4]; PGL complexes, with DOPE added): enhanced transfection efficiency compared to the un-substituted surfactant, 12-3-12; also recorded: higher levels of transfection efficiency compared to the non-substituted gemini surfactant 12-3-12; also recorded: comparable to that of Lipofectamine Plus
- transfection efficiency ([4]; PGL system (plasmid DNA-gemini surfactant-DOPE), charge ratio 1:10): 6.7±0.5 ng luciferase/2×10^4 cells
- increase in transfection compared to an un-substituted gemini surfactant ([4]; p<0.01): 9 fold
- cell viability / toxicity (in words) (cultured cells): not statistically significantly different from that of the 12-5N-12 and 12-8N-12
- cell viability (cultured cells; after transfection with plasmid DNA-gemini surfactant-DOPE or Lipofectamine Plus, relative to controls (no treatment or plasmid DNA alone)): about 70%
- membrane charge density σM [5]: 0.920 ×10^−2 e/Å^2
- d-spacing of main scattering peak [1]: 59.4 Å
- pH of transition in particle size and zeta potential [6]: 5.5
- DNA distortion from CD spectrum (in words) (plasmid DNA): greatest DNA distortion
- transfection efficiency (in words) [2]: significantly higher level of transfection efficiency
- Head group area a0 [7]: 1.56 ± 0.04 nm^2/molecule
